Numbers after ± are expanded uncertainties.
Legend:
[1] = refractive index (Na D-line) (dimensionless); xn = mol fraction of the nth substance listed; conditions: 100 kPa, Liquid, Standard Abbe refractometry, x1 = 0.25
[2] = xn = mol fraction of the nth substance listed; conditions: 100 kPa, Liquid, x1 = 0.25; for electrical conductivity: Alternating current cell with electrodes; for viscosity: Falling or rolling sphere viscometry; for speed of sound: Single path-length method; for mass density: Vibrating tube method

For `C[N+](C)(C)Cc1ccccc1.[Cl-]` [trimethylbenzylammonium chloride] + OCCOCCOCCO, the refractive index ([1]; 283.15 K) was 1.4923 ± 0.0011, the refractive index ([1]; 288.15 K) was 1.4908 ± 0.0011 and the refractive index ([1]; 293.15 K) was 1.4894 ± 0.0011. For the same molecule, the refractive index ([1]; 298.15 K) was 1.488 ± 0.0011, the refractive index ([1]; 303.15 K) was 1.4865 ± 0.0011 and the refractive index ([1]; 308.15 K) was 1.4849 ± 0.0011. The refractive index ([1]; 313.15 K) was 1.4836 ± 0.0011, the refractive index ([1]; 318.15 K) was 1.4821 ± 0.0011 and the refractive index ([1]; 323.15 K) was 1.4807 ± 0.0011. It also gave a refractive index ([1]; 328.15 K) of 1.4792 ± 0.0011, a refractive index ([1]; 333.15 K) of 1.4778 ± 0.0011 and a refractive index ([1]; 338.15 K) of 1.4763 ± 0.0011. The refractive index ([1]; 343.15 K) was 1.4749 ± 0.0011, the electrical conductivity ([2]; 283.15 K) was 0.048 ± 0.002 S/m and the viscosity ([2]; 283.15 K) was 620.1 ± 53 mPa·s. The speed of sound ([2]; 283.15 K) was 1776.2 ± 3.8 m/s, the mass density ([2]; 283.15 K) was 1127.45 ± 11 kg/m3 and the electrical conductivity ([2]; 288.15 K) was 0.063 ± 0.003 S/m. The viscosity ([2]; 288.15 K) was 470.8 ± 36 mPa·s, the speed of sound ([2]; 288.15 K) was 1761 ± 3.7 m/s and the mass density ([2]; 288.15 K) was 1124.08 ± 11 kg/m3. It also gave an electrical conductivity ([2]; 293.15 K) of 0.081 ± 0.003 S/m, a viscosity ([2]; 293.15 K) of 370.5 ± 25 mPa·s and a speed of sound ([2]; 293.15 K) of 1746.2 ± 3.7 m/s. It also gave a mass density ([2]; 293.15 K) of 1120.7 ± 11 kg/m3, an electrical conductivity ([2]; 298.15 K) of 0.101 ± 0.004 S/m and a viscosity ([2]; 298.15 K) of 308.8 ± 19 mPa·s. The speed of sound ([2]; 298.15 K) was 1731.4 ± 3.7 m/s, the mass density ([2]; 298.15 K) was 1117.31 ± 11 kg/m3 and the electrical conductivity ([2]; 303.15 K) was 0.124 ± 0.005 S/m. The viscosity ([2]; 303.15 K) was 214.3 ± 11 mPa·s, the speed of sound ([2]; 303.15 K) was 1716.9 ± 3.7 m/s and the mass density ([2]; 303.15 K) was 1113.93 ± 11 kg/m3. The electrical conductivity ([2]; 308.15 K) was 0.152 ± 0.006 S/m, the viscosity ([2]; 308.15 K) was 155.7 ± 6.3 mPa·s and the speed of sound ([2]; 308.15 K) was 1702.8 ± 3.6 m/s. The mass density ([2]; 308.15 K) was 1110.57 ± 11 kg/m3, the electrical conductivity ([2]; 313.15 K) was 0.187 ± 0.008 S/m and the viscosity ([2]; 313.15 K) was 115.6 ± 3.8 mPa·s. The speed of sound ([2]; 313.15 K) was 1688.5 ± 3.6 m/s, the mass density ([2]; 313.15 K) was 1107.21 ± 11 kg/m3 and the electrical conductivity ([2]; 318.15 K) was 0.226 ± 0.009 S/m. The viscosity ([2]; 318.15 K) was 87.8 ± 2.4 mPa·s, the speed of sound ([2]; 318.15 K) was 1674.6 ± 3.6 m/s and the mass density ([2]; 318.15 K) was 1103.87 ± 11 kg/m3. For the same molecule, the electrical conductivity ([2]; 323.15 K) was 0.278 ± 0.011 S/m, the viscosity ([2]; 323.15 K) was 68.5 ± 1.6 mPa·s and the speed of sound ([2]; 323.15 K) was 1660.8 ± 3.5 m/s. It also gave a mass density ([2]; 323.15 K) of 1100.54 ± 11 kg/m3, an electrical conductivity ([2]; 328.15 K) of 0.325 ± 0.013 S/m and a viscosity ([2]; 328.15 K) of 54.9 ± 1.2 mPa·s. The speed of sound ([2]; 328.15 K) was 1647.2 ± 3.5 m/s, the mass density ([2]; 328.15 K) was 1097.22 ± 11 kg/m3 and the electrical conductivity ([2]; 333.15 K) was 0.377 ± 0.015 S/m. The viscosity ([2]; 333.15 K) was 43.5 ± 1 mPa·s, the speed of sound ([2]; 333.15 K) was 1633.6 ± 3.5 m/s and the mass density ([2]; 333.15 K) was 1093.9 ± 11 kg/m3. For the same molecule, the electrical conductivity ([2]; 338.15 K) was 0.44 ± 0.018 S/m, the viscosity ([2]; 338.15 K) was 34.3 ± 0.8 mPa·s and the speed of sound ([2]; 338.15 K) was 1620.1 ± 3.5 m/s. The mass density ([2]; 338.15 K) was 1090.59 ± 11 kg/m3, the electrical conductivity ([2]; 343.15 K) was 0.506 ± 0.02 S/m and the viscosity ([2]; 343.15 K) was 27.4 ± 0.6 mPa·s. It also gave a speed of sound ([2]; 343.15 K) of 1606.6 ± 3.5 m/s and a mass density ([2]; 343.15 K) of 1087.29 ± 11 kg/m3.
`CCCC[N+](CCCC)(CCCC)Cc1ccccc1.[Cl-]` [benzyltributylammonium chloride] + OCCOCCOCCO showed a refractive index ([1]; 283.15 K) of 1.4936 ± 0.0011, a refractive index ([1]; 288.15 K) of 1.4921 ± 0.0011 and a refractive index ([1]; 293.15 K) of 1.4906 ± 0.0011. It also gave a refractive index ([1]; 298.15 K) of 1.4889 ± 0.0011, a refractive index ([1]; 303.15 K) of 1.4874 ± 0.0011 and a refractive index ([1]; 308.15 K) of 1.4857 ± 0.0011. For the same molecule, the refractive index ([1]; 313.15 K) was 1.4842 ± 0.0011, the refractive index ([1]; 318.15 K) was 1.4827 ± 0.0011 and the refractive index ([1]; 323.15 K) was 1.4811 ± 0.0011. It also gave a refractive index ([1]; 328.15 K) of 1.4795 ± 0.0011, a refractive index ([1]; 333.15 K) of 1.4779 ± 0.0011 and a refractive index ([1]; 338.15 K) of 1.4764 ± 0.0011. It also gave a refractive index ([1]; 343.15 K) of 1.4748 ± 0.0011, an electrical conductivity ([2]; 283.15 K) of 0.013 ± 0.001 S/m and a viscosity ([2]; 283.15 K) of 738.7 ± 67 mPa·s. For the same molecule, the speed of sound ([2]; 283.15 K) was 1710.1 ± 3.6 m/s, the mass density ([2]; 283.15 K) was 1077.97 ± 11 kg/m3 and the electrical conductivity ([2]; 288.15 K) was 0.017 ± 0.001 S/m. The viscosity ([2]; 288.15 K) was 506 ± 40 mPa·s, the speed of sound ([2]; 288.15 K) was 1692.4 ± 3.6 m/s and the mass density ([2]; 288.15 K) was 1074.64 ± 11 kg/m3. It also gave an electrical conductivity ([2]; 293.15 K) of 0.021 ± 0.001 S/m, a viscosity ([2]; 293.15 K) of 356.9 ± 24 mPa·s and a speed of sound ([2]; 293.15 K) of 1675.8 ± 3.6 m/s. For the same molecule, the mass density ([2]; 293.15 K) was 1071.36 ± 11 kg/m3, the electrical conductivity ([2]; 298.15 K) was 0.027 ± 0.001 S/m and the viscosity ([2]; 298.15 K) was 256.5 ± 14 mPa·s. It also gave a speed of sound ([2]; 298.15 K) of 1659.8 ± 3.5 m/s, a mass density ([2]; 298.15 K) of 1068.09 ± 11 kg/m3 and an electrical conductivity ([2]; 303.15 K) of 0.035 ± 0.002 S/m. It also gave a viscosity ([2]; 303.15 K) of 188.5 ± 8.6 mPa·s, a speed of sound ([2]; 303.15 K) of 1644.2 ± 3.5 m/s and a mass density ([2]; 303.15 K) of 1064.81 ± 11 kg/m3. The electrical conductivity ([2]; 308.15 K) was 0.043 ± 0.002 S/m, the viscosity ([2]; 308.15 K) was 142.4 ± 5.5 mPa·s and the speed of sound ([2]; 308.15 K) was 1629.2 ± 3.5 m/s. The mass density ([2]; 308.15 K) was 1061.53 ± 11 kg/m3, the electrical conductivity ([2]; 313.15 K) was 0.054 ± 0.002 S/m and the viscosity ([2]; 313.15 K) was 109.1 ± 3.5 mPa·s. The speed of sound ([2]; 313.15 K) was 1614.3 ± 3.5 m/s, the mass density ([2]; 313.15 K) was 1058.25 ± 11 kg/m3 and the electrical conductivity ([2]; 318.15 K) was 0.067 ± 0.003 S/m. The viscosity ([2]; 318.15 K) was 85.2 ± 2.3 mPa·s, the speed of sound ([2]; 318.15 K) was 1599.8 ± 3.4 m/s and the mass density ([2]; 318.15 K) was 1054.97 ± 11 kg/m3. It also gave an electrical conductivity ([2]; 323.15 K) of 0.082 ± 0.003 S/m, a viscosity ([2]; 323.15 K) of 67.7 ± 1.6 mPa·s and a speed of sound ([2]; 323.15 K) of 1585.4 ± 3.4 m/s. It also gave a mass density ([2]; 323.15 K) of 1051.7 ± 11 kg/m3, an electrical conductivity ([2]; 328.15 K) of 0.098 ± 0.004 S/m and a viscosity ([2]; 328.15 K) of 54.4 ± 1.2 mPa·s. For the same molecule, the speed of sound ([2]; 328.15 K) was 1571.2 ± 3.4 m/s, the mass density ([2]; 328.15 K) was 1048.43 ± 11 kg/m3 and the electrical conductivity ([2]; 333.15 K) was 0.114 ± 0.005 S/m. It also gave a viscosity ([2]; 333.15 K) of 43.3 ± 1 mPa·s, a speed of sound ([2]; 333.15 K) of 1557.1 ± 3.4 m/s and a mass density ([2]; 333.15 K) of 1045.18 ± 11 kg/m3. The electrical conductivity ([2]; 338.15 K) was 0.145 ± 0.006 S/m, the viscosity ([2]; 338.15 K) was 34.9 ± 0.8 mPa·s and the speed of sound ([2]; 338.15 K) was 1543.3 ± 3.3 m/s. For the same molecule, the mass density ([2]; 338.15 K) was 1041.92 ± 10 kg/m3, the electrical conductivity ([2]; 343.15 K) was 0.174 ± 0.007 S/m and the viscosity ([2]; 343.15 K) was 28.3 ± 0.6 mPa·s. The speed of sound ([2]; 343.15 K) was 1530 ± 3.3 m/s and the mass density ([2]; 343.15 K) was 1038.69 ± 10 kg/m3.

Reference: the NIST ThermoML archive (doi:10.1021/acs.jced.8b00213)
